In patent US20180346731A1, “Formation of Stable Pyranoanthocyanins, and Uses Thereof as Sources of Natural Color” (Ohio State Innovation Foundation, priority 2017, published 2018):

Experiments:
[1] = HPLC monitoring of pigment peaks with ascorbic acid; type: physicochemical
Procedure: Prior to experimentation, pigments were evaluated for purity by using an analytical HPLC only different from the previously listed one by the use of different pumps (LC-20AD, Shimadzu, Md., US). Purified pigments were filtered using the Phenex RC 0.45 μm membranes. A binary system with 1 mL/min flow rate was used: solvent A: 4.5% formic acid in HPLC grade water and solvent B: HPLC grade acetonitrile. The gradient began with an isocratic flow of 6% solvent B for 17 minutes (elution of primary anthocyanins), increasing to 15% solvent B by 45 minutes (elution of primary pyranoanthocyanins), and to 40% solvent B by 50 minutes. A 10 μL injection volume was loaded onto a Phenomenex Kinetix 5 μm EVO C18 100 A. 150×4.6 mm column and Phenomenex Ultra UHPLC EVO C18 guard cartridge attached.
The semi-purified chokeberry extract, the isolated cyanidin-3-galactoside, and the purified 5-carboxypyranocyanidin-3-galactoside were diluted in pH 3.0 citrate buffer (0.1 M adjusted with HCl) until an absorbance of 1.0 at their respective λmax was reached. Levels of AA of 250, 500, and 1000 mg/L were added using a concentrated ascorbic acid stock solution, and a control consisting of each pigment with the absence of AA was maintained. The control consisted of the pigment in the buffer in the absence of AA. An additional test was performed with the same model juice using hydrogen peroxide, a known degradation product of AA. To determine if AA bleaching was due to formation of H2O2, direct addition of it was investigated. In place of added AA, a 62.2 μL of a 0.3% peroxide solution was added to match the molar equivalency of the 500 mg/L AA level, which was 2.84 mM.
All samples were brought to the same final volume with additional citrate buffer. […] Samples were stored in the dark at 25° C. in an incubator. UV-Vis spectrophotometry, colorimetry, and HPLC analyses were conducted over a 5 day period following the addition of ascorbic acid or hydrogen peroxide. UV-Vis spectral data was collected every hour for the first 8 hours, and then at 12 hr, and daily from that point on for 5 days. […] HPLC analyses were conducted on days 0, 1, 3, and 5. All treatments were run in triplicate.
Prepared solutions were monitored to determine the formation of potential degradation products or profile changes. Using the analytical HPLC system and conditions described, chromatograms were monitored with the max plot (260-700 nm), 490 nm (near λmax of 5-carboxypyranocyanidin-3-galactoside), and 520 nm (near ma of cyanidin-3-galactoside). A max plot of 470-520 nm was later added to standardize changes in the AUC for all three pigments and their degradation products.

[2] = UV-Vis absorbance loss and first-order bleaching kinetics of pigment solutions with ascorbic acid (pH 3.0 citrate buffer, 25° C., dark); type: physicochemical; details: for K (reaction rate, first-order) / t1/2: 25° C. dark
Procedure: The semi-purified chokeberry extract, the isolated cyanidin-3-galactoside, and the purified 5-carboxypyranocyanidin-3-galactoside were diluted in pH 3.0 citrate buffer (0.1 M adjusted with HCl) until an absorbance of 1.0 at their respective λmax was reached. Levels of AA of 250, 500, and 1000 mg/L were added using a concentrated ascorbic acid stock solution, and a control consisting of each pigment with the absence of AA was maintained. The control consisted of the pigment in the buffer in the absence of AA. An additional test was performed with the same model juice using hydrogen peroxide, a known degradation product of AA. To determine if AA bleaching was due to formation of H2O2, direct addition of it was investigated. In place of added AA, a 62.2 μL of a 0.3% peroxide solution was added to match the molar equivalency of the 500 mg/L AA level, which was 2.84 mM. All samples were brought to the same final volume with additional citrate buffer. […] Samples were stored in the dark at 25° C. in an incubator. UV-Vis spectrophotometry, colorimetry, and HPLC analyses were conducted over a 5 day period following the addition of ascorbic acid or hydrogen peroxide. UV-Vis spectral data was collected every hour for the first 8 hours, and then at 12 hr, and daily from that point on for 5 days. […] HPLC analyses were conducted on days 0, 1, 3, and 5. All treatments were run in triplicate. A SpectraMax 190 Microplate Reader (Molecular Devices, Sunnyvale, Calif., U.S.) with a 96-well plate (poly-D-lysine coated polystyrene) were used for the evaluation of absorbance from 380-700 nm, 1 nm intervals. Aliquots (200 uL) of samples were loaded into individual wells, and a blank consisted of the same citrate buffer used. Because of the rapid nature of AA-induced color loss, degradation kinetics were evaluated in terms of change in maximum absorbance at the original λmax over time. Bleaching is a first-order reaction, typical of ACN degradation, and was modeled as such in determining the reaction rate and half-life. The decrease in maximum absorbance correlated with an increase in lightness (L*) as well as the decrease in chroma (c*). The reduction in maximum absorbance did closely follow first-order kinetics for chokeberry extract and cyanidin-3-galactoside but slightly deviated for 5-carboxypyranocyanidin-3-galactoside. […] The kinetics results for each pigment and AA level can be found in Table 3 below.

OC[C@H]1O[C@@H](Oc2cc3c(O)cc(O)cc3[o+]c2-c2ccc(O)c(O)c2)[C@H](O)[C@@H](O)[C@H]1O [Cyanidin-3-galactoside, cyanidin-3-galactoside]
target peaks left after 1 day ([1]; 1000 mg/L AA, HPLC): 2% | reduction of pigment peak by day 1 ([1]; 1 g/L AA, HPLC AUC): 91% | reduction of pigment peak by day 5 ([1]; 1 g/L AA, HPLC AUC): > 99% | K (reaction rate, first-order) ([2]; 250 mg/L AA): 3.18E−02 | t1/2 ([2]; 250 mg/L AA): 22 h | reduction in maximum absorbance ([2]; 500 mg/L AA, 5 day period): 88% | λmax after hypsochromic change ([2]; 500 mg/L AA, after treatment): 509 nm | λmax before hypsochromic change ([2]; 500 mg/L AA, start): 511 nm | K (reaction rate, first-order) ([2]; 500 mg/L AA): 5.90E−02 | t1/2 ([2]; 500 mg/L AA): 12 h | K (reaction rate, first-order) ([2]; 1000 mg/L AA): 8.64E−02 | t1/2 ([2]; 1000 mg/L AA): 8 h | slope of reaction rate vs AA level (susceptibility to AA), relative to 5-carboxypyranocyanidin-3-galactoside ([2]; AA 0-1000 mg/L): 8.2 × | slope of reaction rate vs AA level, relative to chokeberry extract ([2]; AA 0-1000 mg/L): 3.1 × | t1/2 ([2]; Control, no AA): 546 h | K (reaction rate, first-order) ([2]; Control, no AA, absorbance at λvis-max): 1.27E−03 | time before a significant difference (p<0.05) in maximum absorbance from time 0 ([2]; all levels of AA added): 2 h
